# Test results published in US9737544B2, “Compounds” (ASTEX THERAPEUTICS LIMITED, priority 2012, dated 2017).
# Tests used:
# Type in all cases: cell-based
# [1] = system: Ba/F3-KDR-transfected cells; experiment: Ba/F3-KDR (minus IL3 or plus IL3) cellular proliferation assay; details: 24 h, read-out: BAF3-KDR (MIN IL3) pIC50 (converted)
# [2] = system: Ba/F3-FGFR1-transfected cells; experiment: Ba/F3-FGFR1 (minus IL3 or plus IL3) cellular proliferation assay; details: 24 h, read-out: BAF3-FGFR1 (MIN IL3) pIC50 (converted)
# [3] = system: Ba/F3-FGFR4-transfected cells; experiment: Ba/F3-FGFR4 cellular proliferation assay; details: 24 h, read-out: BAF3-FGFR 4 pIC50 (converted)
# [4] = system: Ba/F3-FGFR3-transfected cells; experiment: Ba/F3-FGFR3 (minus IL3 or plus IL3) cellular proliferation assay; details: 24 h, read-out: BAF3-FGFR3 (MIN IL3) pIC50 (converted)
SMILES,IC50 [1] [µM],IC50 [2] [µM],IC50 [3] [µM],IC50 [4] [µM]
COc1cc(OC)cc(C(O)c2ccc3ncc(-c4cnn(C)c4)nc3n2)c1 (stereo not shown) [Compound 2],> 10,,,
COc1cc(OC)cc(C(C)(O)c2ccc3ncc(-c4cnn(C)c4)nc3n2)c1 (stereo not shown) [Compound 3],> 10,> 10,,
COC(=O)CC(c1cc(OC)cc(OC)c1)c1ccc2ncc(-c3cnn(C)c3)nc2n1 (stereo not shown) [Compound 4],> 10,,> 10,
COc1cc(OC)cc(C(=O)c2ccc3ncc(-c4cnn(C)c4)cc3n2)c1 [Compound 8],> 10,,> 10,
COc1cc(OC)cc(C(O)c2ccc3ncc(-c4cnn(C)c4)cc3n2)c1 (stereo not shown) [Compound 10],> 10,,,
COc1cc(OC)cc(C(OCCO)c2ccc3ncc(-c4cnn(C)c4)cc3n2)c1 (stereo not shown) [Compound 11],> 10,,,
COc1cc(OC)cc(C(CCO)c2ccc3ncc(-c4cnn(C)c4)nc3n2)c1 (stereo not shown) [Compound 14],> 10,,,
COc1cc(OC)cc(C(Cc2nccn2S(=O)(=O)N(C)C)c2ccc3ncc(-c4cnn(C)c4)nc3n2)c1 (stereo not shown) [Compound 15],> 10,,,
COc1cccc(C(=O)c2ccc3ncc(-c4cnn(C)c4)cc3n2)c1 [Compound 16],> 10,> 10,,
COc1cccc(C(O)c2ccc3ncc(-c4cnn(C)c4)cc3n2)c1 (stereo not shown) [Compound 17],> 10,> 10,,
COc1cc(OC)cc(C(=O)c2ccc3ncc(N4CCOCC4)cc3n2)c1 [Compound 20],> 10,> 10,> 10,
CCOC(=O)CC(c1cc(OC)cc(OC)c1)c1ccc2ncc(N3CCOCC3)cc2n1 (stereo not shown) [Compound 21],> 10,> 10,> 10,
COc1cc(OC)cc(C(=O)c2cc3cc(-c4cnn(C)c4)cnc3cn2)c1 [Compound 23],> 10,> 10,> 10,
CCOC(=O)CC(c1cc(OC)cc(OC)c1)c1cc2cc(-c3cnn(C)c3)cnc2cn1 (stereo not shown) [Compound 24],> 10,> 10,> 10,> 10
COc1cccc(C(=O)c2cc3cc(-c4cnn(C)c4)cnc3cn2)c1 [Compound 26],,> 10,> 10,> 10
